Experimental findings from patent US20250011299A1, “PYRIDAZINYL AMINO DERIVATIVES AS ALK5 INHIBITORS” (CHIESI FARMACEUTICI S.P.A., priority 2021, published 2025) are described below.

The target of this test is T1, human ALK5 (Homo sapiens, UniProt P36897).
T1 construct: human ALK5 (recombinant TGF β1 N-term GST-tagged, 80-end); GST (N); purchased
T1 sequence (P36897 80-503 limits assumed): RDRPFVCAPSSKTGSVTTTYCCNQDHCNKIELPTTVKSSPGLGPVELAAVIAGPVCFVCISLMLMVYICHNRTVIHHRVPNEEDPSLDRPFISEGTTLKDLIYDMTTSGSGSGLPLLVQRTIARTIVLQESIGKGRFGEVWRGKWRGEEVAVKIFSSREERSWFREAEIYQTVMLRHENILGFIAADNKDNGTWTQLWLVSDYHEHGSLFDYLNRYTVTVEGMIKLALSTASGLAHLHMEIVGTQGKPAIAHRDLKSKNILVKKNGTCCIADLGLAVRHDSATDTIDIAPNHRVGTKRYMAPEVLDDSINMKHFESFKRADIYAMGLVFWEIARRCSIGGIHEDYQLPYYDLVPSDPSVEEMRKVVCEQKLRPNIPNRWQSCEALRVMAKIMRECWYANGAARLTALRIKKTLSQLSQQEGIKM
Nature of the test: ADP-GLO Kinases assay of ALK5 enzymatic activity. Type of test: biochemical. As to conditions: purified recombinant human ALK5, TGFβ1 peptide substrate, pIC50 converted to pKi by Cheng-Prusoff, high ATP protocol (15 μM) for very potent compounds, 25° C. A digest of the protocol:
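Purified ALK5 preincubated 15 min with compound, then reacted with substrate and ATP; ADP formed read by ADP-Glo luminescence after 120 min or 60 min reaction, all steps at 25° C. 11-point concentration-response; pIC50 converted to pKi via Cheng-Prusoff.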
By Ki is commonly meant the equilibrium dissociation constant of an inhibitor or competing ligand from its target. In the case of `CN1CCN(CCOc2ccc3c(Nc4cc(-c5cc(Cl)ccc5F)nnc4OCC(F)(F)F)ccnc3c2)CC1` [Example 51, N-[6-(5-chloro-2-fluorophenyl)-3-(2,2,2-trifluoroethoxy)pyridazin-4-yl]-7-[2-(4-methylpiperazin-1-yl)ethoxy]quinolin-4-amine], the Ki was ≤ 0.1 nM.
As for `CN1CCN(CCC(=O)Nc2cc(Nc3cc(-c4cc(Cl)ccc4F)nnc3N(C)[C@@H]3CCOC3)ccn2)CC1` (single isomer, unassigned) [Example 107, N-(4-{[6-(5-chloro-2-fluorophenyl)-3-[methyl(oxolan-3-yl)amino]pyridazin-4-yl]amino}pyridin-2-yl)-3-(4-methylpiperazin-1-yl)propanamide], the Ki is ≤ 0.1 nM.
As for `O=C(Nc1cc(Nc2cc(-c3cc(Cl)ccc3F)nnc2SCCO)ncn1)[C@H]1C[C@@H](N2CCN(C3CC3)CC2)C1` [Example 181, Cis N-(6-{[6-(5-chloro-2-fluorophenyl)-3-[(2-hydroxyethyl)sulfanyl]pyridazin-4-yl]amino}pyrimidin-4-yl)-3-(4-cyclopropylpiperazin-1-yl)cyclobutane-1-carboxamide], the figure is ≤ 0.1 nM; as for `CN1C[C@@H]2C[C@H]1CN2[C@H]1C[C@H](C(=O)Nc2cc(Nc3cc(-c4cc(Cl)ccc4F)nnc3SCCO)ccn2)C1` [Example 88, Trans N-(4-{[6-(5-chloro-2-fluorophenyl)-3-[(2-hydroxyethyl)sulfanyl]pyridazin-4-yl]amino}pyridin-2-yl)-3-[(1S,4S)-5-methyl-2,5-diazabicyclo[2.2.1]heptan-2-yl]cyclobutane-1-carboxamide], ≤ 0.1 nM.
Regarding `COCCOc1nnc(-c2cc(Cl)ccc2F)cc1Nc1ccnc(NC(=O)CCN2CCN(CC(F)(F)F)CC2)c1` [Example 33, N-(4-{[6-(5-chloro-2-fluorophenyl)-3-(2-methoxyethoxy)pyridazin-4-yl]amino}pyridin-2-yl)-3-[4-(2,2,2-trifluoroethyl)piperazin-1-yl]propanamide], the Ki was ≤ 0.1 nM.
For `CN1CCN(CCC(=O)Nc2cc(Nc3cc(-c4cc(Cl)ccc4F)nnc3N(C)CC3(CO)CCOC3=O)ccn2)CC1` (centres unmarked) [Example 152, N-(4-{[6-(5-chloro-2-fluorophenyl)-3-({[3-(hydroxymethyl)-2-oxooxolan-3-yl]methyl}(methyl)amino)pyridazin-4-yl]amino}pyridin-2-yl)-3-(4-methylpiperazin-1-yl)propanamide] the value was ≤ 0.1 nM; for `COC(=O)c1sc(Nc2cc(Nc3cc(-c4cc(Cl)ccc4F)nnc3SCCO)ccn2)cc1C1CCN(C)CC1` [Example 92, methyl 5-[(4-{[6-(5-chloro-2-fluorophenyl)-3-[(2-hydroxyethyl)sulfanyl]pyridazin-4-yl]amino}pyridin-2-yl)amino]-3-(1-methylpiperidin-4-yl)thiophene-2-carboxylate], ≤ 0.1 nM.
On to `COc1ccc2c(Nc3cc(-c4cc(Cl)ccc4F)nnc3OCCN(C)C)ccnc2c1` [Example 39, N-[6-(5-chloro-2-fluorophenyl)-3-[2-(dimethylamino)ethoxy]pyridazin-4-yl]-7-methoxyquinolin-4-amine], for which the Ki is 0.398 to 3.16 nM.
For `CN1CCN(CCC(=O)Nc2cc(Nc3cc(-c4cc(Cl)ccc4F)nnc3OCC3COC(=O)O3)ccn2)CC1` (centres unmarked) [Example 79, N-(4-{[6-(5-chloro-2-fluorophenyl)-3-[(2-oxo-1,3-dioxolan-4-yl)methoxy]pyridazin-4-yl]amino}pyridin-2-yl)-3-(4-methylpiperazin-1-yl)propanamide] the value was ≤ 0.1 nM.
For `CN1CCN(CC23CC(C(=O)Nc4cc(Nc5cc(-c6cc(Cl)ccc6F)nnc5SCCO)ccn4)(C2)C3)CC1` [Example 180, N-(4-{[6-(5-chloro-2-fluorophenyl)-3-[(2-hydroxyethyl)sulfanyl]pyridazin-4-yl]amino}pyridin-2-yl)-3-[(4-methylpiperazin-1-yl)methyl]bicyclo[11.1.1]pentane-1-carboxamide] the value was ≤ 0.1 nM; for `CN1CCN(CCC(=O)Nc2cc(Nc3cc(-c4cc(Cl)ccc4F)nnc3N3CC(CO)C3)ccn2)CC1` [Example 95, N-(4-{[6-(5-chloro-2-fluorophenyl)-3-[3-(hydroxymethyl)azetidin-1-yl]pyridazin-4-yl]amino}pyridin-2-yl)-3-(4-methylpiperazin-1-yl)propanamide], ≤ 0.1 nM.
For `CN1CCN(CCC(=O)Nc2cc(Nc3cc(-c4cc(Cl)ccc4F)nnc3SC[C@H]3C[C@@H](O)C3)ccn2)CC1` [Example 154, N-(4-{[6-(5-chloro-2-fluorophenyl)-3-{[(3-hydroxycyclobutyl)methyl]sulfanyl}pyridazin-4-yl]amino}pyridin-2-yl)-3-(4-methylpiperazin-1-yl)propanamide] the value was ≤ 0.1 nM; for `CN1CCN(CCC(=O)Nc2cc(Nc3cc(-c4cc(Cl)ccc4F)nnc3SC3(C)CCOC3=O)ccn2)CC1` (racemic) [Example 192, N-(4-{[6-(5-chloro-2-fluorophenyl)-3-[(3-methyl-2-oxooxolan-3-yl)sulfanyl]pyridazin-4-yl]amino}pyridin-2-yl)-3-(4-methylpiperazin-1-yl)propanamide], 0.126 to 0.316 nM.
For the compound `O=C(CN1CCCNCC1)Nc1cc(Nc2cc(-c3cc(Cl)ccc3F)nnc2SCCO)ccn1` [Example 61, N-(4-{[6-(5-chloro-2-fluorophenyl)-3-[(2-hydroxyethyl)sulfanyl]pyridazin-4-yl]amino}pyridin-2-yl)-2-(1,4-diazepan-1-yl)acetamide], the Ki is ≤ 0.1 nM.
On to `COC(=O)C1CN(c2nnc(-c3cc(Cl)ccc3F)cc2Nc2ccnc(NC(=O)CN3C[C@@H]4C[C@H]3CN4C)c2)C1` [Example 109, methyl 1-[6-(5-chloro-2-fluorophenyl)-4-[(2-{2-[(1S,4S)-5-methyl-2,5-diazabicyclo[2.2.1]heptan-2-yl]acetamido}pyridin-4-yl)amino]pyridazin-3-yl]azetidine-3-carboxylate], for which the inhibitory constant (Ki) is ≤ 0.1 nM.
Consider `CN1C[C@@H]2C[C@H]1CN2[C@H]1C[C@@H](C(=O)Nc2cc(Nc3cc(-c4cc(Cl)ccc4F)nnc3SCCO)ccn2)C1` [Example 87, Cis N-(4-{[6-(5-chloro-2-fluorophenyl)-3-[(2-hydroxyethyl)sulfanyl]pyridazin-4-yl]amino}pyridin-2-yl)-3-[(1S,4S)-5-methyl-2,5-diazabicyclo[2.2.1]heptan-2-yl]cyclobutane-1-carboxamide], for which the Ki is ≤ 0.1 nM.
For `COC(=O)C1CN(CC(=O)Nc2cc(Nc3cc(-c4cc(Cl)ccc4F)nnc3OCCN(C)C)ccn2)CCN1C` (centres unmarked) [Example 12, methyl 4-{[(4-{[6-(5-chloro-2-fluorophenyl)-3-[2-(dimethylamino)ethoxy]pyridazin-4-yl]amino}pyridin-2-yl)carbamoyl]methyl}-1-methylpiperazine-2-carboxylate] the value was 0.126 to 0.316 nM; for `C[S+]([O-])CCCOc1nnc(-c2cc(Cl)ccc2F)cc1Nc1ccnc(N)c1` (centres unmarked) [Example 57, N4-[6-(5-chloro-2-fluorophenyl)-3-(3-methanesulfinylpropoxy)pyridazin-4-yl]pyridine-2,4-diamine], 0.398 to 3.16 nM.
On to `COCC1(CN(C)c2nnc(-c3cc(Cl)ccc3F)cc2Nc2ccnc(NC(=O)CCN3CCN(C)CC3)c2)CCOC1=O` (single isomer, unassigned) [Example 202, N-(4-{[6-(5-chloro-2-fluorophenyl)-3-({[3-(methoxymethyl)-2-oxooxolan-3-yl]methyl}(methyl)amino)pyridazin-4-yl]amino}pyridin-2-yl)-3-(4-methylpiperazin-1-yl)propanamide], for which the inhibition constant Ki is 0.126 to 0.316 nM.
For `C[C@@H]1CN([C@H]2C[C@@H](C(=O)Nc3cc(Nc4cc(-c5cc(Cl)ccc5F)nnc4N(C)CC4(C)CCOC4=O)ncn3)C2)C[C@H](C)N1` (single isomer, unassigned) [Example 186, N-(6-{[6-(5-chloro-2-fluorophenyl)-3-{methyl[(3-methyl-2-oxooxolan-3-yl)methyl]amino}pyridazin-4-yl]amino}pyrimidin-4-yl)-3-(3,5-dimethylpiperazin-1-yl)cyclobutane-1-carboxamide] the value was ≤ 0.1 nM; for `CN1CCCN(CC(=O)Nc2cc(Nc3cc(-c4cc(Cl)ccc4F)nnc3OC3CCOC3)ccn2)CC1` (racemic) [Example 72, N-(4-{[6-(5-chloro-2-fluorophenyl)-3-(oxolan-3-yloxy)pyridazin-4-yl]amino}pyridin-2-yl)-2-(4-methyl-1,4-diazepan-1-yl)acetamide], ≤ 0.1 nM.
As for `CN1CCN([C@H]2C[C@@H](C(=O)Nc3cc(Nc4cc(-c5cc(Cl)ccc5F)nnc4N(C)CC4(C)CCOC4=O)ncn3)C2)CC1` (single isomer, unassigned; enantiomer 2) [Example 144, Cis Enantiomer 2 N-(6-{[6-(5-chloro-2-fluorophenyl)-3-{methyl[(3-methyl-2-oxooxolan-3-yl)methyl]amino}pyridazin-4-yl]amino}pyrimidin-4-yl)-3-(4-methylpiperazin-1-yl)cyclobutane-1-carboxamide], the figure is ≤ 0.1 nM.
For `CN1CCN([C@H]2C[C@@H](C(=O)Nc3cc(Nc4cc(-c5cc(Cl)ccc5F)nnc4OC4CCOC4)ccn3)C2)CC1` (single isomer, unassigned) [Example 111, N-(4-{[6-(5-chloro-2-fluorophenyl)-3-(oxolan-3-yloxy)pyridazin-4-yl]amino}pyridin-2-yl)-3-(4-methylpiperazin-1-yl)cyclobutane-1-carboxamide] the value was ≤ 0.1 nM.
